From US20260248788A1, “NEW COMPOUNDS AND TREATMENT OF RENAL CELL CARCINOMA” (TRUSTLIFE THERAPEUTICS INC., priority 2023, published 2026)
“Also recorded” adds a separate entry of the source.

What was measured:
Assay type in all cases: cell-based, human
BUB1B = test: Western blot of BUB1B in Caki-1 cells treated with TG-101209 derivatives; settings: for expression levels of BUB1B (Western blot): Caki-1 cells, 5 μM of target drug, 1 day (FIG. 41, 56); for expression levels of BUB1B (summary statement): concentration not given
Procedure: (§1) Cell culture 2: Caki-1 was purchased from CLS Cell Lines Service (Germany). The cells were maintained in McCoy's 5A (modified) medium (16600082, Thermo Fisher Scientific, USA) and supplemented with 10% fetal bovine serum (FBS, F7524, Sigma-Aldrich), 1% Penicillin/Streptomycin (P4333, Sigma-Aldrich).
The target drugs developed as alternatives to TG-101209, were dissolved in 0.1% DMSO (41639, Sigma-Aldrich). Caki-1 cells from cell culture 2 were seeded in a 6-well plate at 3×10^5 cells per well. […]
The cells were washed with PBS solution and then lysed with CelLytic M (C2978, Sigma-Aldrich) lysis buffer containing protease inhibitors (11836170001, Roche). The cell lysates were centrifuged at 12 000 rpm for 10 min and supernatants were collected. Protein Assay Dye Reagent (5000006, Bio-Rad) was used for the determination of protein concentration. The absorbance of the proteins was measured spectrophotometrically at 595 nm by a microplate reader (Hidex Sense Beta Plus). Protein electrophoresis was performed using Mini-PROTEAN® TGX™ Precast Gels (4561086, Bio-Rad) and then the separated proteins were transferred to a Trans-Blot Turbo Mini 0.2 μm PVDF Transfer Packs membrane (1704158, Bio-Rad) by using Trans-Blot® Turbo™ Transfer System (Bio-Rad). The membrane was blocked with 5% skim milk for 30 min at 4° C. with gentle rocking. After blocking, the membrane was treated with primary antibodies: Anti-BUB1B (HPA008419, Human Protein Atlas, Sweden) and Anti-Beta actin (ab8227, Abcam) as a loading control overnight at 4° C. on a rocking platform. After the treatment of primary antibodies, the membrane was washed three times with TBS-T buffer (A09-7500-100, Medicago). Then, Goat anti-Rabbit IgG-HRP (ab205718, Abcam) was treated as the secondary antibody for 30 min at 4° C. with gentle rocking.

Caki-1 cells [1] = test: MTT cell viability assay; settings: for cell viability of treated cells (summary statement): concentration not given; for reduction in cell viability (MTT) / effect on cell viability (MTT): 1 day
Procedure: as §1
The cytotoxic effects of the TG-101209 and its alternatives on the Caki-1 cells were tested by MTT (Thiazolyl Blue Tetrazolium Bromide) method. 1.5×10^4 cells were seeded per well in a 96-well plate in 100 μL growth media. […] After the incubation period, 5 mg/ml MTT (M2128, Sigma-Aldrich) solution in PBS (10 μL) was added to each well. After 1 hour, the MTT solution and all media were removed from the wells. 100 μl of DMSO was added and mixed to dissolve the formazan crystals. Cell viability was analysed by measuring the absorbance of the dissolved formazan at a wavelength of 570 nm with a microplate reader (Hidex Sense Beta Plus).

Caki-1 cells [2] = test: LDH cytotoxicity assay; settings: 1 day; for cytotoxicity (LDH assay): Caki-1, 10 μM; for Ranking, Cytotoxicity (%): top five, LDH assay, 10 μM, rank 1 = highest
Procedure: as §1
Lactate dehydrogenase (LDH) assay was performed with LDH Assay Kit (ab65393). […] 20 μl of media was analysed with LDH Assay Kit as per manufacturer's instruction.

Compound | expression levels of BUB1B (Western blot) (BUB1B) | cell viability of treated cells (summary statement) (Caki-1 cells [1]) | reduction in cell viability (MTT) (Caki-1 cells [1]; Caki-1, 5 μM, first batch) | also measured
Cc1cnc(Nc2ccc(N3CCN(C)CC3)cc2)nc1Nc1cccc(S(=O)(=O)Nc2ccccc2)c1 [Compound M3, 3-((5-methyl-2-((4-(4-methylpiperazin-1-yl)phenyl)amino)pyrimidin-4-yl)amino)-N-phenylbenzenesulfonamide] | significantly lower the expression levels of BUB1B | – | – | –
Cc1cnc(Nc2ccc(N3CCN(C)CC3)cc2)nc1Nc1cccc(S(=O)(=O)N2CCOCC2)c1 [Compound M7, 5-methyl-N2-(4-(4-methylpiperazin-1-yl)phenyl)-N4-(3-(morpholinosulfonyl)phenyl)pyrimidine-2,4-diamine] | significantly lower the expression levels of BUB1B | especially low cell viability; also recorded: reduced cell viability | – | expression levels of BUB1B (summary statement) (BUB1B): reduction of the expression levels of BUB1B
Cc1cn(-c2cc(Nc3ncc(C)c(Nc4cccc(S(=O)(=O)NC(C)(C)C)c4)n3)cc(C(F)(F)F)c2)cn1 [Compound M64, N-(tert-butyl)-3-((5-methyl-2-((3-(4-methyl-1H-imidazol-1-yl)-5-(trifluoromethyl)phenyl)amino)pyrimidin-4-yl)amino)benzenesulfonamide] | significantly lower the expression levels of BUB1B | – | – | –
COc1cc(Nc2ncc(C)c(Nc3cccc(S(=O)(=O)NC(C)(C)C)c3)n2)cc(OC)c1 [Compound M79, N-(tert-butyl)-3-((2-((3,5-dimethoxyphenyl)amino)-5-methylpyrimidin-4-yl)amino)benzenesulfonamide] | significantly lower the expression levels of BUB1B | especially low cell viability; also recorded: significantly reduced cell viability | – | expression levels of BUB1B (summary statement) (BUB1B): reduction of the expression levels of BUB1B
Cc1ccc(Nc2ncc(C)c(Nc3cccc(S(=O)(=O)NC(C)(C)C)c3)n2)cc1Nc1nc(-c2cccnc2)cs1 [Compound M88, N-(tert-butyl)-3-((5-methyl-2-((4-methyl-3-((4-(pyridin-3-yl)thiazol-2-yl)amino)phenyl)amino)pyrimidin-4-yl)amino)benzenesulfonamide] | significantly lower the expression levels of BUB1B | especially low cell viability; also recorded: significantly reduced cell viability | – | IC50 (Caki-1 cells [1]; Homo sapiens, 24 h, Caki-1, 1 day (FIG. 43), text: after treatment with 5 μM): > 3000 nM; expression levels of BUB1B (summary statement) (BUB1B): reduction of the expression levels of BUB1B
COc1cc(NC(=O)c2ccc(Nc3ncc(C)c(Nc4cccc(S(=O)(=O)NC(C)(C)C)c4)n3)cc2)cc(OC)c1 [Compound M101A, 4-((4-((3-(N-(tert-butyl)sulfamoyl)phenyl)amino)-5-methylpyrimidin-2-yl)amino)-N-(3,5-dimethoxyphenyl)benzamide] | – | particularly low cell viability; also recorded: significantly reduced cell viability | the greatest | cytotoxicity (LDH assay) (Caki-1 cells [2]; first batch): exhibited cytotoxicity; Ranking, Cytotoxicity (%) (Caki-1 cells [2]): 5; effect on cell viability (MTT) (Caki-1 cells [1]; Caki-1, 10 μM, first batch): most profound effect
Cc1cnc(Nc2ccc(C(=O)Nc3cccc(Br)c3)cc2)nc1Nc1cccc(S(=O)(=O)NC(C)(C)C)c1 [Compound M101B, N-(3-bromophenyl)-4-((4-((3-(N-(tert-butyl)sulfamoyl)phenyl)amino)-5-methylpyrimidin-2-yl)amino)benzamide] | – | particularly low cell viability; also recorded: significantly reduced cell viability | the greatest | cytotoxicity (LDH assay) (Caki-1 cells [2]; first batch): exhibited cytotoxicity; Ranking, Cytotoxicity (%) (Caki-1 cells [2]): 3
Cc1cnc(Nc2ccc(C(=O)Nc3cccc(S(=O)(=O)NC(C)(C)C)c3)cc2)nc1Nc1cccc(S(=O)(=O)NC(C)(C)C)c1 [Compound M101D, N-(3-(N-(tert-butyl)sulfamoyl)phenyl)-4-((4-((3-(N-(tert-butyl)sulfamoyl)phenyl)amino)-5-methylpyrimidin-2-yl)amino)benzamide] | – | particularly low cell viability; also recorded: significantly reduced cell viability | the greatest | cytotoxicity (LDH assay) (Caki-1 cells [2]; first batch): highest cytotoxicity; Ranking, Cytotoxicity (%) (Caki-1 cells [2]): 1; effect on cell viability (MTT) (Caki-1 cells [1]; Caki-1, 10 μM, first batch): greatest reduction of cell viability
Cc1cnc(Nc2ccc(C(=O)Nc3cccc(S(=O)(=O)N4CCOCC4)c3)cc2)nc1Nc1cccc(S(=O)(=O)NC(C)(C)C)c1 [Compound M101F, 4-((4-((3-(N-(tert-butyl)sulfamoyl)phenyl)amino)-5-methylpyrimidin-2-yl)amino)-N-(3-(morpholinosulfonyl)phenyl)benzamide] | – | particularly low cell viability; also recorded: significantly reduced cell viability | the greatest | cytotoxicity (LDH assay) (Caki-1 cells [2]; first batch): exhibited cytotoxicity
Cc1cnc(Nc2ccc(C(=O)Nc3ccc(OCCCN4CCOCC4)cc3)cc2)nc1Nc1cccc(S(=O)(=O)NC(C)(C)C)c1 [Compound M101G, 4-((4-((3-(N-(tert-butyl)sulfamoyl)phenyl)amino)-5-methylpyrimidin-2-yl)amino)-N-(4-(3-morpholinopropoxy)phenyl)benzamide] | – | particularly low cell viability; also recorded: significantly reduced cell viability | the greatest | –
Cc1cnc(Nc2ccc(C(=O)Nc3ccc4ncccc4c3)cc2)nc1Nc1cccc(S(=O)(=O)NC(C)(C)C)c1 [Compound M101H, 4-((4-((3-(N-(tert-butyl)sulfamoyl)phenyl)amino)-5-methylpyrimidin-2-yl)amino)-N-(quinolin-6-yl)benzamide] | – | particularly low cell viability; also recorded: significantly reduced cell viability | the greatest | –
Cc1ccc(NC(=O)c2ccc(Nc3ncc(C)c(Nc4cccc(S(=O)(=O)NC(C)(C)C)c4)n3)cc2)cc1S(N)(=O)=O [Compound M101Q, 4-((4-((3-(N-(tert-butyl)sulfamoyl)phenyl)amino)-5-methylpyrimidin-2-yl)amino)-N-(4-methyl-3-sulfamoylphenyl)benzamide] | – | – | – | cytotoxicity (LDH assay) (Caki-1 cells [2]; second batch): greatest cytotoxicity
Cc1cnc(Nc2ccc(C(=O)Nc3ccc(Oc4ccc(Cl)cc4)nc3)cc2)nc1Nc1cccc(S(=O)(=O)NC(C)(C)C)c1 [Compound M101V, 4-((4-((3-(N-(tert-butyl)sulfamoyl)phenyl)amino)-5-methylpyrimidin-2-yl)amino)-N-(6-(4-chlorophenoxy)pyridin-3-yl)benzamide] | – | – | – | cytotoxicity (LDH assay) (Caki-1 cells [2]; second batch): greatest cytotoxicity
COc1cc(Nc2ncc(C)c(Nc3cccc(S(=O)(=O)N4CCOCC4)c3)n2)cc(OC)c1OC [Compound M115, 5-methyl-N4-(3-(morpholinosulfonyl)phenyl)-N2-(3,4,5-trimethoxyphenyl)pyrimidine-2,4-diamine] | – | especially low cell viability; also recorded: reduced cell viability | – | expression levels of BUB1B (summary statement) (BUB1B): reduction of the expression levels of BUB1B
Cc1cnc(Nc2ccc(C(=O)Nc3ccc(N4CCN(C)CC4)cc3)cc2)nc1Nc1ccc(N2CCN(C)CC2)cc1 [ME3, 4-((5-methyl-4-((4-(4-methylpiperazin-1-yl)phenyl)amino)pyrimidin-2-yl)amino)-N-(4-(4-methylpiperazin-1-yl)phenyl)benzamide] | – | particularly low cell viability; also recorded: significantly reduced cell viability | – | reduction in cell viability (MTT) (Caki-1 cells [1]; Caki-1, 10 μM, second batch): the greatest
